Reference: patent US20220125771A1, “S[…], ANALOGUES THEREOF, AND METHODS USING SAME” (priority 2019, published 2022)

tested on: HBsAg in HepG2.2.15 cells; test: HBsAg Assay: inhibition of HBsAg in HepG2.2.15 cells (CLIA immunoassay of supernatant); type: cell-based, hepatitis B virus; settings: Hepatitis B virus, HepG2.2.15, 144 h, read-out: sAg EC50, μM, HepG2.2.15 cells; supernatant collected at day 6 after exposure of compounds; final DMSO 0.5%
Method: Inhibition of HBsAg was determined in HepG2.2.15 cells. Cells were maintained in culture medium containing 10% fetal calf serum, […], Glutamine, penicillin/streptomycin. Cells were seeded in 96-well collagen-coated plate at a density of 30,000 cells/well. Serially diluted compounds were added to cells next day at the final DMSO concentration of 0.5%. Cells were incubated with compounds for 2-3 days, after which medium was removed. Fresh medium containing compounds was added to cells for additional 3-4 days. At day 6 after exposure of compounds, supernatant was collected, the HBsAg immunoassay (microplate-based chemiluminescence immunoassay kits, CLIA, Autobio Diagnosics Co., Zhengzhou, China, Catalog #CL0310-2) was used to determine the level of HBsAg according to manufactory instruction. Dose-response curves were generated and the EC50 value (effective concentrations that achieved 50% inhibitory effect) were determined using XLfit software. In addition, cells were seeded at a density of 5,000 cells/well for determination of cell viability in the presence and absence of compounds by using CellTiter-Glo reagent (Promega). Tables 1-3 show EC50 values obtained by the HBsAg assay for selected compounds.

SMILES	EC50
COc1c(C(=O)O)c(=O)c2c(n1C)-c1cc(OC(F)F)c3ncccc3c1CC2C(C)(C)C (stereo not shown) [Example 46, 6-(tert-Butyl)-12-(difluoromethoxy)-9-methoxy-10-methyl-7-oxo-5,6,7,10-tetrahydroquinolino[7,8-f]quinoline-8-carboxylic Acid]	0.3 µM
CCN1CCCc2c3c(cc(OC(F)F)c21)-c1[nH]c(=O)c(C(=O)O)cc1C(C(C)(C)C)C3 (stereo not shown) [Example 34, 6-(tert-Butyl)-12-(difluoromethoxy)-1-ethyl-9-oxo-1,2,3,4,5,6,9,10-octahydroquinolino[7,8-f]quinoline-8-carboxylic Acid]	0.012 µM
COCCCN1CCCc2c3c(cc(OC(F)F)c21)-c1[nH]c(=O)c(C(=O)O)cc1C(C(C)(C)C)C3 (stereo not shown) [Example 30, 6-(tert-Butyl)-12-(difluoromethoxy)-1-(3-methoxypropyl)-9-oxo-1,2,3,4,5,6,9,10-octahydroquinolino[7,8-f]quinoline-8-carboxylic Acid]	0.2 µM
COc1nc2c(c3ccccc13)CC(C(C)(C)C)c1cc(C(=O)O)c(=O)n(C)c1-2 (stereo not shown) [Example 43, 12-(tert-Butyl)-6-methoxy-4-methyl-3-oxo-3,4,11,12-tetrahydrobenzo[c][1,10]phenanthroline-2-carboxylic Acid]	0.023 µM
CC(=O)N1CCCc2c3c(cc(OC(F)F)c21)-c1[nH]c(=O)c(C(=O)O)cc1C(C(C)(C)C)C3 (stereo not shown) [Example 31, 1-Acetyl-6-(tert-butyl)-12-(difluoromethoxy)-9-oxo-1,2,3,4,5,6,9,10-octahydroquinolino[7,8-f]quinoline-8-carboxylic Acid]	0.05 µM
CC(C)(C)C1Cn2c(cc3c(OC(F)F)cccc32)-c2[nH]c(=O)c(C(=O)O)c(O)c21 (stereo not shown) [Example 1, 5-(tert-Butyl)-11-(difluoromethoxy)-4-hydroxy-2-oxo-1,2,5,6-tetrahydroindolo[1,2-h][1,7]naphthyridine-3-carboxylic Acid]	0.009 µM
COCCOc1cccc2c1cc1n2CC(C(C)(C)C)c2c-1[nH]c(=O)c(C(=O)O)c2O (stereo not shown) [Example 6, 5-(tert-Butyl)-4-hydroxy-11-(2-methoxyethoxy)-2-oxo-1,2,5,6-tetrahydroindolo[1,2-h][1,7] naphthyridine-3-carboxylic Acid]	0.76 µM

same assay, conditions: read-out: sAg EC50; HepG2.2.15 cells; supernatant collected at day 6 after exposure of compounds; final DMSO 0.5%

SMILES	EC50
CC(C)C1Cc2cc(C(=O)O)c(=O)[nH]c2-c2nc3c(OC(F)F)cccn3c21 (single isomer, unassigned) [Example 21, 11-(Difluoromethoxy)-6-isopropyl-2-oxo-1,2,5,6-tetrahydropyrido[2′,1′:2,3]imidazo[4,5-h]quinoline-3-carboxylic Acid]	6 µM
CC(C)(C)C1Cn2c(cc3c(OC(F)F)cccc32)-c2[nH]c(=O)c(C(=O)O)c(O)c21 (single isomer, unassigned) [Example 3, 5-(tert-Butyl)-11-(difluoromethoxy)-4-hydroxy-2-oxo-1,2,5,6-tetrahydroindolo[1,2-h][1,7]naphthyridine-3-carboxylic Acid]	0.005 µM
COc1nc2c(c3ccccc13)CC(C(C)(C)C)c1cc(C(=O)O)c(=O)[nH]c1-2 (single isomer, unassigned) [Example 42, 12-(tert-Butyl)-6-methoxy-3-oxo-3,4,11,12-tetrahydrobenzo[c][1,10]phenanthroline-2-carboxylic Acid]	0.075 µM
COc1ccn2c3c(nc2c1OC)-c1[nH]c(=O)c(C(=O)O)cc1C(C(C)(C)C)C3 (single isomer, unassigned) [Example 18, 5-(tert-Butyl)-10,11-dimethoxy-2-oxo-1,2,5,6-tetrahydropyrido[2′,1′:2,3]imidazo[4,5-h]quinoline-3-carboxylic Acid]	0.005 µM
COc1cccc2c1nc1n2CC(C(C)(C)C)c2cc(C(=O)O)c(=O)[nH]c2-1 (single isomer, unassigned) [Example 28, 5-(tert-Butyl)-11-methoxy-2-oxo-1,2,5,6-tetrahydrobenzo[4,5]imidazo[1,2-h][1,7]naphthyridine-3-carboxylic Acid]	0.093 µM
CC(C)(C)C1Cc2c(nc3c(OC(F)F)cccn23)-c2[nH]c(=O)c(C(=O)O)c(O)c21 (single isomer, unassigned) [Example 8, 5-(tert-Butyl)-11-(difluoromethoxy)-4-hydroxy-2-oxo-1,2,5,6-tetrahydropyrido[2′,1′:2,3]imidazo[4,5-h]quinoline-3-carboxylic Acid]	0.22 µM
COc1ccn2c3c(nc2c1OC)-c1c(cc(C(=O)O)c(=O)n1C)C(C(C)(C)C)C3 (single isomer, unassigned) [Example 22, 5-(tert-Butyl)-10,11-dimethoxy-1-methyl-2-oxo-1,2,5,6-tetrahydropyrido[2′,1′:2,3]imidazo[4,5-h]quinoline-3-carboxylic Acid]	0.11 µM
COc1cc2c(c3cccnc13)CC(C(C)(C)C)c1cc(C(=O)O)c(=O)[nH]c1-2 (single isomer, unassigned) [Example 35, 6-(tert-Butyl)-12-methoxy-9-oxo-5,6,9,10-tetrahydroquinolino[7,8-f]quinoline-8-carboxylic Acid]	0.027 µM
CC(C)(C)C1Cc2c(nc3c(OC(F)F)cccn23)-c2[nH]c(=O)c(C(=O)O)c(O)c21 (single isomer, unassigned) [Example 7, 5-(tert-Butyl)-11-(difluoromethoxy)-4-hydroxy-2-oxo-1,2,5,6-tetrahydropyrido[2′,1′:2,3]imidazo[4,5-h]quinoline-3-carboxylic Acid]	0.002 µM
CN1CCCc2c3c(cc(OC(F)F)c21)-c1[nH]c(=O)c(C(=O)O)cc1C(C(C)(C)C)C3 (single isomer, unassigned) [Example 33, 6-(tert-Butyl)-12-(difluoromethoxy)-1-methyl-9-oxo-1,2,3,4,5,6,9,10-octahydroquinolino[7,8-f]quinoline-8-carboxylic Acid]	0.3 µM
CC(C)(C)C1Cn2c(cc3c(OC(F)F)cccc32)-c2[nH]c(=O)c(C(=O)O)c(O)c21 (single isomer, unassigned) [Example 2, 5-(tert-Butyl)-11-(difluoromethoxy)-4-hydroxy-2-oxo-1,2,5,6-tetrahydroindolo[1,2-h][1,7]naphthyridine-3-carboxylic Acid]	1 µM
COc1nc2c(c3ccccc13)CC(C(C)(C)C)c1cc(C(=O)O)c(=O)[nH]c1-2 (single isomer, unassigned) [Example 41, 12-(tert-Butyl)-6-methoxy-3-oxo-3,4,11,12-tetrahydrobenzo[c][1,10]phenanthroline-2-carboxylic Acid]	0.001 µM
